Values joined by “and” are separate entries in the source; they are usually repeats but may differ in a detail not shown here. Equal entries are not always repeated. Where two headings read alike, the source gives them in different places.
How the values were obtained:
[1] = test system: TA1535; assay: In vitro bacterial mutagenicity assay (pre-incubation), strain TA1535; conditions: positive control; for Number of revertants x1, x2, x3: individual plates; for Fold response: vs vehicle control
Protocol: (§1) Dispense 100 microliter aliquots of the appropriate bacterial cultures into sample tubes stored on ice. Dispense aliquots of the vehicle, positive controls or dose formulations into the appropriate sample tubes. 2 mL top Agar and HBT cap was added to the sample tube, inverted three times and poured into MG plate. The lid was replaced on the plate and left on a level surface to let the agar harden. The plates were incubated in an incubator for 48 to 72 h. The background lawn and count the number of revertants was checked for each plate.

[2] = test system: WP2 uvrA; assay: In vitro bacterial mutagenicity assay (pre-incubation), strain WP2 uvrA; conditions: positive control, S9 +, 15 μg/plate
Protocol: as §1

[3] = test system: HCV replicon cell line, AVA5 [sub-genomic (CON1), genotype 1b]; assay: microbe, parasite or virus in culture; assay type: cell-based; conditions: genotype 1B; for EC50: read-out: Control 2 (μM) EC50; for EC90: read-out: Control 2 (μM) EC90
Protocol: (§2) Primary anti-HCV assay-Antiviral activity against HCV was assessed in a 3-day assay (Okuse, et al., 2005; Antiviral. Res. 65:23; Korba, et al., 2008, Antiviral Res. 77:56) using the stably-expressing HCV replicon cell line, AVA5 [sub-genomic (CON1), genotype 1b](Blight, et al., 2000, Science 290:1972) maintained as sub-confluent cultures on 96-well plates. Antiviral activity was determined by blot hybridization analysis of intracellular HCV RNA (normalized to the level of cellular B-actin RNA in each culture sample). Cytotoxicity was assessed by neutral red dye uptake in cultures maintained in parallel plates.
(§3) EC50, EC90, and CC50 values were calculated by linear regression analysis (MS EXCEL®, QUATTROPRO®) using data combined from all treated cultures Korba & Gerin, 1992, Antivir. Res. 19:55; Okuse, et al., 2005, Antivir. Res. 65:23). Standard deviations for EC50 and EC90 values were calculated from the standard errors generated by the regression analyses. […] The Selectivity index (S.I.) was calculated as CC50/EC50. Recombinant human interferon 2b (PBL laboratories, Inc.) was used as an assay control.
(§4) For each combination of agents, three concentration ratios, centered on the use of the compounds at equipotent antiviral concentrations, were used. A dilution series (six three-fold-concentration steps, beginning at the approximate EC90) was then generated with the concentration ratio of the two agents remaining the same in each dilution step. Toxicity analysis was performed as described above for the monotherapies. Analysis of drug interactions in the combination studies was determined by the use of the […] program (Biosoft, Inc., Cambridge, United Kingdom). This program evaluates synergy, additivity, or antagonism by use of several methodologies, including that of Chou and Talalay with a statistical analysis employing the Monte Carlo technique to provide confidence limits, fraction-affected-confidence interval (FA-CI) plots, isobolograms, and median-effect plots. (Belenkii, M. S. Schinazi, R. A method for the analysis of combination therapies with statistical analysis. Antiviral Res. 25, 11, 2005).

[4] = Cytotoxicity by neutral red dye uptake in replicon cultures in parallel plates; conditions: human, AVA5 HCV replicon cells (sub-genomic CON1, genotype 1b)
Protocol: as §2, §3, §4

[5] = test system: TA98; assay: In vitro bacterial mutagenicity assay (pre-incubation), strain TA98; conditions: positive control, TA98, S9 0, 1 μg/plate
Protocol: as §1

[6] = test system: TA100; assay: In vitro bacterial mutagenicity assay (pre-incubation), strain TA100; conditions: positive control, TA100, S9 0, 0.5 μg/plate
Protocol: as §1

[7] = test system: replicon cell line containing H/FL-Neo (genotype 1a (H77), full length construct); assay: Secondary anti-HCV assay: genotype 1a replicon, format of the primary assay; assay type: cell-based; conditions: genotype 1a replicon
Description: Res. 19:55; Okuse, et al., 2005, Antivir. Res. 65:23).
Secondary anti-HCV assay—This assay assesses activity against different HCV genotypes using the format described for the primary assay. Activity against the genotype 1b HCV is included for comparison. Currently available is a replicon cell line containing H/FL-Neo (genotype 1a (H77), full length construct) (Blight, et al., 2003, J. Virol. 77:3181).

[8] = test system: HCV replicon cell line, AVA5; assay: Cytotoxicity by neutral red dye uptake in replicon cultures in parallel plates; conditions: read-out: Control 2 (μM) CC50; genotype 1B
Protocol: as §2, §3, §4

[9] = test system: TA1537; assay: In vitro bacterial mutagenicity assay (pre-incubation), strain TA1537; conditions: positive control, TA1537, S9 0, 10 μg/plate
Protocol: as §1

For `Nc1ccc2cc3ccccc3cc2c1` [Compound 2AA, reference compound], the “Number of revertants mean” value ([1]; TA1535, S9 +, 5 μg/plate) was 254, the “Number of revertants x1, x2, x3” value ([1]; TA1535, S9 +, 5 μg/plate) was 263 and 242 and 257 and the Fold response ([1]; TA1535, S9 +, 5 μg/plate) was 11. The “Number of revertants mean” value [2] was 373, the “Number of revertants x1, x2, x3” value ([2]; individual plates) was 476 and 357 and 285 and the Fold response ([2]; vs vehicle control) was 9.6.

`CCC[C@H](NC(=O)[C@@H]1[C@H]2CCC[C@H]2CN1C(=O)[C@@H](NC(=O)[C@@H](NC(=O)c1cnccn1)C1CCCCC1)C(C)(C)C)C(=O)C(=O)NC1CC1` [VX-950] showed an EC50 ([3]; Hepatitis C virus, Ava5) of 0.249 µM, an EC90 ([3]; Hepatitis C virus, Ava5) of 0.892 µM and a CC50 at 3 day [4] of 88 µM.

With `O=[N+]([O-])c1ccc2c(c1)Cc1ccccc1-2` [Compound 2NF, reference compound] the “Number of revertants mean” value [5] was 139, the “Number of revertants x1, x2, x3” value ([5]; individual plates) was 151 and 114 and 153 and the Fold response ([5]; vs vehicle control) was 4.5.

In the case of `[N-]=[N+]=[N-].[Na+]` [NaAz, reference compound], the “Number of revertants mean” value ([1]; TA1535, S9 0, 0.5 μg/plate) is reported as 321, the “Number of revertants x1, x2, x3” value ([1]; TA1535, S9 0, 0.5 μg/plate) is reported as 340 and 312 (2×) and the Fold response ([1]; TA1535, S9 0, 0.5 μg/plate) is reported as 12. The “Number of revertants mean” value [6] was 560, the “Number of revertants x1, x2, x3” value ([6]; individual plates) was 568 and 569 and 543 and the Fold response ([6]; vs vehicle control) was 5.0.

Compound `COC1C(OP(=O)(OC[C@H]2O[C@@H](n3cnc4c(N)ncnc43)CC2O)SCOC(=O)C(C)(C)C)[C@@H](CO)O[C@H]1n1ccc(=O)[nH]c1=O` (some centres unmarked) [Compound 1] has an EC50 ([7]; 2-fold depression of intracellular HCV RNA, read-out: EC50 HCV Type 1A) of 2.9 µM and an EC90 ([7]; 10-fold depression of intracellular HCV RNA, read-out: EC90 HCV type 1A) of 8.5 µM.

Work on `C[C@@]1(O)[C@H](O)[C@@H](CO)O[C@H]1n1ccc(N)nc1=O` [2′CmeCyt] yielded an EC50 [3] of 1.4 µM, an EC90 [3] of 5.3 µM and a CC50 [8] greater than 300 µM.

With `Nc1c2ccccc2nc2ccccc12` [Compound 9AC, reference compound] the “Number of revertants mean” value [9] was 741, the “Number of revertants x1, x2, x3” value ([9]; individual plates) was 728 and 910 and 585 and the Fold response ([9]; vs vehicle control) was 57.
